# Entries after “also recorded” stand apart in the source; their conditions may differ.
# Assays:
# Format in all cases: in vivo, mouse
# [1] = system: mice with chronic HFD-induced obesity; test: Chronic HFD-induced obesity model, Compound I-1 versus CFD switch (FIG. 8)
# Description: Details regarding treatment times and controls are shown in panel (a). Panels b-e show lymph “leakage” into surrounding VAT due to HFD-induced remodelling of the mesenteric lymphatics, as measured by intramucosal injection of Evans blue dye and lymphangiography. (f-g) n=2 (CFD), 7 (HFD), 8 (Cele-pro (CP30)) and 5 (CFD switch).
# [2] = system: mice reintroduced to a high-fat diet; test: HFD rechallenge study (FIG. 9); details: Cele-pro (CP30)
# Description: Details regarding treatment times and controls are shown in panel (a). Panels b-e show whole mount immunofluorescence images of the mesenteric afferent lymph vessels and cell nuclei in VAT of several mouse groups. Panels f-i show lymph “leakage” into surrounding VAT due to HFD-induced remodelling of the mesenteric lymphatics, as measured by intramucosal injection of Evans blue dye and lymphangiography. (j-m) n=5 (CFD), 5 (HFD), 6 (HFD rechallenge-Cele-pro (CP30)) and 5-7 (HFD rechallenge-CFD switch). (a-d) n=5 (CFD), 6 (HFD), 8 (HFD rechallenge-Cele-Pro (CP30)) and 7 (HFD rechallenge-CFD switch).
# [3] = system: mice with HFD-induced obesity; test: Dose comparison study of Compound I-1 and celecoxib in HFD mice (FIG. 7)
# Description: Timelines and treatment groups are shown in panel a. (b-c) n=8 (CFD), 8 (CP90), 4, (CP30), 7 (CP10), 4 (Cele30), 5 (Cele 10), 6 (Cele3) and 4 (HFD). (c-d) n=7 (CFD), 7 (CP90), 5, (CP30), 7 (CP10), 5 (Cele30), 7 (Cele 10), 6 (Cele3) and 7 (HFD). (e-f) n=12 (CFD), 8 (CP90), 6 (CP30), 7 (CP10), 7 (Cele30), 8 (Cele 10), and 6 (Cele3), 8 (HFD). (g-h) n=10 (CFD), 8 (CP90), 6 (CP30), 7 (CP10), 6 (Cele30), 8 (Cele 10), and 7 (Cele3), 11 (HFD). (i-j) n=4 (CFD), 7 (CP 90), 7 (CP 10), 7 (Cele 10) and 6 (Cele 3). Statistical differences from one-way ANOVA, compared to CFD (baseline). *p<0.05, **p<0.01, ***p<0.005, ****p<0.001.
# [4] = system: C57BL6/J mice fed high fat diet (HFD); test: Celecoxib / Compound I-1 treatment study in HFD fed mice
# Method: All animal work was conducted per Australian National Health and Medical Research Council (NHMRC) guidelines for the care and use of animals in research. Seven-week-old male Sprague Dawley rats or C57BL6/J mice were randomized and housed in groups of 2-5 in a temperature-controlled room under specific-pathogen free (SPF) or standard animal housing conditions with free access to food and water.
# In the observational studies, mice or rats were fed semi-purified normal chow diet (control fat diet (CFD), 7% w/w fat and 16% total energy from fat, AIN93G, Specialty Feeds Pty Ltd, Australia) or high fat diet (HFD, 36% w/w fat and 59% total energy from fat, SF03-002, Specialty Feeds Pty Ltd, Australia) for a total duration of 6, 15, 23 or 32 weeks to evaluate changes to mesenteric lymph composition, structure and function over time during the progression of obesity. Mice or rats were fed with the same CFD or HFD for 6-10 weeks prior to collection of mesenteric lymph for in vitro incubation with lymphatic endothelial cells (LECs) and adipocytes, respectively.
# A “prevention study” and a “treatment study” were also conducted. Both the prevention and treatment studies included mice fed the CFD or HFD for 15 or 23 weeks, as described above. In the prevention study, an additional group of mice was fed the HFD supplemented with celecoxib at a dose equivalent to ˜29 mg/kg/day (based on average food intake) for 15 weeks. In the treatment study, animals were fed the HFD for 15 weeks followed by a HFD supplemented with celecoxib (˜29 mg/kg/day) or Compound I-1 (˜9 mg/kg/day celecoxib equivalents) for 7-8 weeks. The celecoxib was purchased from MedChemExpress (NJ, USA), and Compound I-1 was synthesized consistent with the description in WO2016/023082.
# Across all studies, body mass was measured once per week. Oral glucose tolerance tests (OGTTs) were conducted at 5, 14, 22 and/or 31 weeks after commencing feeding mice the HFD or CFD. To perform OGTTs, mice were routinely handled for 2 weeks prior to minimize the stress caused by handling during the experiment. On the day of the OGTT, mice were fasted for 4 h (7-11 am) but still had free access to water. Glucose (50 mg D-glucose in 200 μL water) was administered via oral gavage and a drop of blood was collected from the tail tip at fixed time points (0, 15, 30, 60, 90 and 120 mins). Blood glucose was measured using a One-touch glucometer (AccuCheck Performa, Roche, Switzerland). Plasma was separated from the remaining blood sample via centrifugation and reserved for measurement of plasma insulin concentrations via ELISA as described above.
# At the end of all experiments, mice were euthanised via cervical dislocation and rats were euthanised via intracardiac injection of sodium pentobarbitone (100 mg). Organs and tissues, including the lymph nodes and adipose tissue depots, were carefully collected. The mass of adipose tissue depots was weighed to determine adiposity.
# Mesenteric adipose tissue samples (for lymphatic capillary and mesenteric lymphatic vessel analysis) and small intestine samples (for villi and lacteal analysis) were collected with fine forceps. Whole mount adipose tissue was cut into ˜3 mm×3 mm×2 mm pieces and whole mount small intestine was cut into 1.5 cm segments. Immediately after collection, the tissue samples were fixed in 4% paraformaldehyde in PBS at 4° C. overnight. Fat associated lymph clusters (FALCs) were identified by intraperitoneal injection of FluoSphere Carboxylate-Modified Nanospheres, 100 nm, yellow-green (505/515, Invitrogen, CA, USA) and collected with fine forceps under a Zeiss Stemi 2000-CS surgical microscope (2.5× magnification) with a fluorescence adaptor (Nightsea, MA, USA). The fluorescent light was filtered through a cyan color light filter (Electron Microscopy Science, PA, USA) to visualize the nanospheres and thus the FALCs. FALCs were cleaned of adipose tissue after collected and placed whole in 4% paraformaldehyde in PBS at 4° C. overnight. […]
# [5] = chronic HFD-induced obesity models, Cele-pro (CP30)
# [6] = Compound I-1 at doses as low as 10 mg/kg (~3 mg/kg celecoxib), ~10-fold lower dose relative to celecoxib
# [7] = various doses of Compound I-1 versus higher corresponding doses of celecoxib
# [8] = Compound I-1 ~9 mg/kg/day celecoxib equivalents, celecoxib at a 3.2-fold higher dose
# [9] = HFD 15 weeks, then 7 weeks drug in HFD feed
# [10] = HFD 15 weeks, then 7 weeks drug in HFD feed, Compound I-1 ~9 mg/kg/day celecoxib equivalents, celecoxib ~29 mg/kg/day
structure (smiles),measurement,setting,value
CCCCCCCCCCCCCCCC(=O)OCC(COC(=O)CCCCCCCCCCCCCCC)OC(=O)CCCCCCCCC(=O)Oc1cc(C)cc(C)c1C(C)(C)CC(=O)NS(=O)(=O)c1ccc(-n2nc(C(F)(F)F)cc2-c2ccc(C)cc2)cc1 [Compound I-1],effects on mice on a high-fat diet relative to animals switched to a chow-fat diet,[1]; Cele-pro (CP30) versus CFD switch,comparable
same,VAT inflammation,[1]; [5],reverses
same,insulin resistance,[1]; [5],reverses
same,lymphatic dysfunction,[1]; [5],reverses
same,beneficial effects after reintroducing the mice to a high-fat diet (HFD rechallenge),[2],persist
same,VAT lymph leakage,[3]; [6],"superior; also recorded: reverses, more effectively"
same,restoration of glycaemic control,[3]; [6],superior
same,reversal of VAT lymphangiogenesis (lymph vessel branching),[3]; [6],"superior; also recorded: reverses, more effectively"
same,reducing fasting plasma triglycerides,[3]; compared with a 3-fold higher dose of celecoxib,superior
same,"HFD-induced obesity, weight",[3]; [7],"reverses, more effectively"
same,changes to lymph composition,[3]; [7],"reverses, more effectively"
same,insulin resistance,[3]; [7],"reverses, more effectively"
same,oral glucose tolerance,[3]; [7],"reverses, more effectively"
same,body weight gain induced by HFD (obesity),[4]; [8],"significantly reduced; also recorded: reverses, more effectively"
same,hyperinsulinemia in the fasted state and after glucose challenge (insulin resistance),[4]; [8],"significantly improved; also recorded: reverses, more effectively"
same,oral glucose tolerance,[4]; [8],significantly improved
same,SAT and VAT accumulation,"[4]; Compound I-1 ~9 mg/kg/day celecoxib equivalents, compared with celecoxib at a 3.2-fold higher dose",more significantly reduced
same,cholesterol levels in mesenteric lymph,[4]; [9],decreased
same,lymph lipid profile (lipidomic analysis of mesenteric lymph) / lymph composition,[4]; [9],"shift in the lymph lipid profile from a HFD-like toward a more CFD-like profile; also recorded: reverses, more effectively"
same,"total concentrations of triglyceride, phospholipid and glucose in mesenteric lymph",[4]; [9],trends toward a decrease
same,total free fatty acid (FFA) in mesenteric lymph,[4]; [9],significantly increased
same,immune cell numbers in mesenteric lymph nodes reversed to levels similar to CFD mice,[4]; [10],successfully reversed
same,immune cells in the mesenteric lymph fluid,[4]; [10],reduced
same,lymph leakage into VAT,[4]; [10],"reversed; also recorded: reverses, more effectively"
same,mesenteric lymph levels of PGE2,[4]; [10],reduced
same,mesenteric lymph levels of VEGF-C,[4]; [10],"below the limit of quantification; also recorded: reverses, more effectively"
same,mesenteric lymphatic branching,[4]; [10],"reversed; also recorded: reverses, more effectively"
same,"mesenteric lymphatic dysfunction, visceral obesity, inflammation, glucose intolerance, and insulin resistance associated with obesity",[4]; compared with non-lymph-targeted celecoxib,"reverse, more effectively"

# — US12611415B2, “Methods and compounds for treatment of metabolic disease” (Monash University, priority 2019, dated 2026)
